# Experimental data taken from US20090298708A1, “2'-DEOXY-2'-FLUORO-BETA-D-ARABINONUCLEOSIDE 5'-TRIPHOSPHATES AND THEIR USE IN ENZYMATIC NUCLEIC ACID SYNTHESIS” (priority 2006, published 2009).
# Columns and labels:
# [1] = molecular target: Phusion High-Fidelity DNA polymerase (Ph) (UniProt P61875); details: apparent fidelity, all 2'F-araNTP and dNTP dropouts; 55 C
# [2] = molecular target: T1, MMLV-RT (Moloney murine leukemia virus, UniProt P03355); test: Primer extension assay with MMLV-RT; type: biochemical; details: MMLV-RT; 37° C.; DNA template PF22 (T/U triphosphates) or PF24 (C triphosphates); three contiguous units
# T1 construct: Reverse transcriptases (RT): • MMLV-RT (MMLV or MM; source: Fermentas); purchased Fermentas
# Excerpt: (§1) Primer extension assays were used to assess the incorporation of 2′F-araNTP on the various DNA templates (Table 1). The DNA primer (PF20) was first radioactively labeled at the 5′-hydroxyl terminus with a radioactive phosphorus probe and the enzyme T4 polynucleotide kinase (T4 PNK) (see Example 1 for General Methods). To assess the incorporation of 2′F-araNTPs, the primer and template were annealed, and the nucleoside 5′-triphosphates added in the presence of enzyme under the conditions specified in Table 2. Time points were obtained by analyzing small aliquots from the reaction mixture through polyacryamide gel electrophoresis (PAGE) and autoradiography.
# (§2) Primer extension assays were used to assess the incorporation efficiency of contiguous 2′F-ara(T/C)TPs compared to 2′F-r(U/C)TP on a DNA template (e.g. PF22 or PF24). To this end, a DNA template (e.g. PF22: FIGS. 15, 16, 17A, 18, 21A; PF24: FIGS. 17B, 19, 20, 21B), primer and the appropriate NTPs (e.g. combination of dATP/dCTP/dGTP/ and NTP, where N=dT, 2′F-araT, 2′F-rU, or rU (FIGS. 15, 16, 17A, 18, 21A); or combination of dATP/dGTP/dTTP/ and NTP, where N=dC, 2′F-araC, 2′F-rC, or rC (FIGS. 17B, 19, 20, 21B)), were incubated in the presence one of MMLV-RT, 9N, HIV or DV polymerase. The protocols and conditions are described in Example 2 and Table 2.
# (§3) Unless otherwise noticed in the Examples described below, the conditions used in the primer extension assays, such as dNTP concentration, reaction temperatures, concentration of Mg^2+, and reaction buffers (provided by the manufacturers, except for the HIV buffer which was prepared in-house) are shown in Table 2.
# (§4) Primer extension assays were used to assess the incorporation of 2′F-araTTP on the DNA template (PF22). The DNA primer (PF20) was first radioactively labeled at the 5′-hydroxyl terminus with a radioactive phosphorus probe and the enzyme T4 polynucleotide kinase (T4 PNK) according to the manufacturer's specifications (MBI Fermentas Life Sciences, Burlington, ON). Incorporation of the ^32P label was accomplished in reaction mixtures consisting of DNA substrate (200 pmol), 2 μl loxreaction buffer (Buffer A for forward reaction: 500 mM Tris-HCl, pH 7.6 at 25° C., 100 mM MgCl2, 50 mM DTT, 1 mM spermidine and 1 mM EDTA), 1 μl T4 PNK enzyme solution (10 U/1 μl in a solution of 20 mM Tris-HCl, pH 7.5, 25 mM KCl, 0.1 mM EDTA, 2 mM DTT and 50% glycerol), 6 μl [γ-^32P]-ATP solution (6000 Ci/mmol, 10 mCi/ml; Amersham Biosciences, Inc.) and autoclaved sterile water to a final volume of 20 μl. The reaction mixture was incubated for about 45-60 min at 37° C., followed by a second incubation for 10 min at 95° C. to heat denature and deactivate the kinase enzyme. The solution was purified according to a standard protocol and the isolated yield of 5′-^32P-DNA following gel extraction averages 50%. The pure labeled samples were kept at −20° C. for future use.
# (§5) Usually 2 or 3 folds of cold (unlabeled) DNA primer were combined with the radioactive primer. Then primer to template was mixed together with the final concentration at 85 nM for the primer and 255 nM for the template (i.e. the primer:template=1:3 molar ratio). The primer and template were heated at 95° C. for 5 min and annealed at 4° C. for at least two hours before use. In an Eppendorf tube, the following reagents, 5× or 10× buffer, nucleoside 5′-triphosphates (DATP, dGTP, dCTP, 2′F-araTTP at the same concentrations; see legend of FIG. 2), water, the primer and template mixture, were added together according to pre-calculated reaction volume (20 μL) and concentrations (see reaction conditions in Table 2). Mineral oil (20 μL) was usually used to prevent evaporation. The reaction mixture was incubated at either 37° C. or 55° C. and one of the various enzymes tested was added to initiate the primer extension reactions. […]
# [3] = molecular target: T2, HIV-1 RT (recombinant) (Human immunodeficiency virus type 1 group M subtype B, UniProt P04585); test: Primer extension assay with HIV-1 RT; type: biochemical; details: 37° C., DNA template PF22 (T/U triphosphates) or PF24 (C triphosphates), three contiguous units
# T2 construct: Reverse transcriptases (RT): • MMLV-RT (MMLV or MM; source: Fermentas); • HIV-1 RT (recombinant); purchased Worthington Biochemical Corp
# Excerpt: as §1, §2, §3, §4, §5
# [4] = test system: Phusion DNA polymerase (Ph); test: Dropout assay, fidelity of incorporation by Ph; type: biochemical; details: 30 min reaction time, 55° C., templates PF21, PF41
# Excerpt: FIG. 13 illustrates the fidelity of 2′F-araNTP incorporation on pyrimidine rich DNA template PF21 by Ph DNA polymerase. […] Template PF41 and primer PF20 are shown; PF39 is a 27-nt DNA control.
# FIG. 14 illustrates the fidelity of 2′F-araNTP incorporation on purine rich DNA template PF41 by Ph DNA polymerase. The base sequence of the primer, DNA template and resulting terminated products in different dropout conditions (condition 1-5) is shown. […] Lane 1: dNTPs; 2: drop out dCTP (i.e. dATP, dGTP and dTTP, shorten as AGT, same coding for lanes 3-5), lane 6: 2′F-araNTPs; 7: drop out 2′F-araCTP (i.e. 2′F-araATP, 2′F-araGTP, 2′F-araTTP, shorten as AGT; same coding for lanes 8-10). The template PF41 and the primer PF20 are shown; PF39 is a 27mer DNA control.
# For example, the 2′F-araNTP of interest is removed from the pool, and the ensuing synthesis on DNA template (e.g. PF21, PF23, PF41, PF43) assessed in comparison with a control reaction containing all four 2′F-araNTPs. For comparison, dropout experiments containing dNTPs are run in parallel. […] Apparent fidelity was calculated according to the equation:
# (§6) 1−[(% full-length−2′F-araNTP)/(% full-length+2′F-araNTP)]
# In one of these assays, 2′F-araATP was removed from the pool, and the ensuing synthesis assessed in comparison with a control reaction containing all four 2′F-araNTPs. For comparison, dropout experiments containing dNTPs were run in parallel (FIGS. 11-14).
# Phusion DNA polymerase (Ph) was evaluated for fidelity of 2′F-araNTP incorporation using the same dropout assay. All four dropout experiments were conducted with the same DNA template PF21 (FIG. 13), or PF41 (FIG. 14).
# [5] = molecular target: T3, DV DNA polymerase (Pyrococcus sp., UniProt Q51334, D141A/DEL493-1029/E143A); test: Dropout assay, fidelity of incorporation by DV; type: biochemical, Pyrococcus species GB-D; details: 30 min reaction time, 25 μM triphosphates, 55° C., template A: PF41, G: PF43, T: PF21, C: PF23
# T3 construct: purchased New England Biolabs; host or cells: E. coli
# Experimental: (§7) FIG. 11A illustrates the fidelity of 2′F-araATP incorporation on a DNA template PF41 by DV and 9N DNA polymerases. Reaction conditions: 0.8 unit DV and 9N, 25 μM triphosphates at 55° C. in 30 μL reaction volume; incubation time: 30 min. Group 1 & 5: dNTPs; 2 & 6: dropout of dATP; 3 & 7: 2′F-araNTPs, 4 & 8: dropout of 2′F-araATP; 27mer control DNA is PF39.
# (§8) FIG. 11B illustrates the fidelity of 2′F-araGTP incorporation on DNA template PF43 by DV and 9N DNA polymerases. Reaction conditions: primer/template (1:1 molar ratio): 100 nM; 0.4 μL (0.8 unit) DV, 9N, 25 μM triphosphate concentration at 55° C. in 30 μL reaction volume. Reaction time for dNTPs (group 1, 5) was 30 min and others were shown above. Group 1 & 5: dNTPs; 2 & 6: drop out dGTP (i.e. dTTP, dCTP and dATP), 3 & 7: 2TF-araNTPs, 4 & 8: drop out 2′F-araGTP; lane P is the template PF41 as the full-length product control; PF39 is a 27-nt DNA control. All samples were analyzed by 12% denaturing PAGE.
# (§9) FIG. 12A illustrates the fidelity of 2′F-araTTP incorporation by DV and 9N DNA polymerases on a DNA template PF21. Reaction conditions: 100 nM primer/template (1:1 molar ratio); 0.4 μL (0.8 unit) DV or 9N, 25 μM triphosphate concentration at 55° C. in 30 μL reaction volume. Reaction time for dNTPs (group 1, 5) was 30 min and others were shown above. Groups 1 & 5: dNTPs; 2 & 6: drop out dTTP; 3 & 7: 2′F-araNTPs; 4 & 8: drop out 2′F-araTTPs. in B: group 1 & 5: dNTPs; 2 & 6: drop out dCTP; 3 & 7: 2′F-araNTPs; 4 & 8: drop out 2′F-araCTPs; PF39 is a 27-nt DNA control. All samples were analyzed by 12% denaturing PAGE.
# as §9, with “12B” for “12A”, “fidelity study” for “fidelity”, “2′F-araCTP” for “2′F-araTTP”, “PF23.” for “PF21.”, “(groups” for “(group”, “Groups” for “Groups 1 & 5: dNTPs; 2 & 6: drop out dTTP; 3 & 7: 2′F-araNTPs; 4 & 8: drop out 2′F-araTTPs. in B: group”
# (§10) “Dropout assays” (Ichida et al. (2005) J. Am. Chem. Soc. 127:2802-2803) were conducted to assess the fidelity of 2′F-araNTP incorporation (each of 2′F-araATP, 2′F-araCTP, 2′F-araGTP and 2′F-araTTP) by various DNA polymerases (FIGS. 11-14). For example, the 2′F-araNTP of interest is removed from the pool, and the ensuing synthesis on DNA template (e.g. PF21, PF23, PF41, PF43) assessed in comparison with a control reaction containing all four 2′F-araNTPs. For comparison, dropout experiments containing dNTPs are run in parallel. Full-length DNA and FANA products are obtained when all four dNTPs (group 1 and 5) and 2′F-araNTPs (groups 3 and 7) were available, however, some pausing may occur during synthesis of the arabinose modified oligomers. Apparent fidelity was calculated according to the equation:
# as §6
# (§11) at 30 min reaction time (sample equation for dNTP values). >99% means that the full-length product was not detectable in our dropout assays.
# (§12) “Dropout assays” (Ichida et al. (2005) J. Am. Chem. Soc. 127:2802-2803) were conducted to assess apparent fidelity of 2′F-araNTP incorporation by DV and 9N. In one of these assays, 2′F-araATP was removed from the pool, and the ensuing synthesis assessed in comparison with a control reaction containing all four 2′F-araNTPs. For comparison, dropout experiments containing dNTPs were run in parallel (FIGS. 11-14). Full-length DNA and FANA products were obtained when all four dNTPs (group 1 and 5) and 2′F-araNTPs (groups 3 and 7) were available, although some pausing was evident during synthesis of the arabinose modified oligomers.
# [6] = molecular target: T4, 9N DNA polymerase (Thermococcus sp., UniProt Q56366, E143D); test: Dropout assay, fidelity of incorporation by 9N; type: biochemical, Thermococcus species (strain 9° N-7); details: 30 min reaction time, 25 μM triphosphates, 55° C., template A: PF41, G: PF43, T: PF21, C: PF23
# T4 construct: purchased New England Biolabs; host or cells: E. coli
# Experimental: as §7, §8, §9
# as §9, with “12B” for “12A”, “fidelity study” for “fidelity”, “2′F-araCTP” for “2′F-araTTP”, “PF23.” for “PF21.”, “(groups” for “(group”, “Groups” for “Groups 1 & 5: dNTPs; 2 & 6: drop out dTTP; 3 & 7: 2′F-araNTPs; 4 & 8: drop out 2′F-araTTPs. in B: group”
# as §10, §6, §11, §12
# [7] = test system: DNA polymerases; test: Primer extension assays, statement for all enzymes studied; type: biochemical; details: DNA template PF24; 9N, HIV, MMLV, DV
Molecule,activity [1],Order of efficiency of incorporation [2],Order of efficiency of incorporation [3],"% Apparent Fidelity, dNTP [4]","% Apparent Fidelity, dNTP [5]","% Apparent Fidelity, dNTP [6]",also measured
TAATACGACTCACTATA / AGAGCCTGAGAAGAGAGTATAGTGAGTCGTATTA [PF20/PF41 primer-template],> 99%,,,,,,
"O=c1ccn([C@@H]2O[C@H](COP(=O)(O)OP(=O)(O)OP(=O)(O)O)[C@@H](O)[C@H]2O)c(=O)[nH]1 [rUTP, reference compound]",,dTTP > 2′F-araTTP > 2′F-rUTP > UTP,dTTP > 2′F-araTTP > 2′F-rUTP > UTP,,,,
TAATACGACTCACTATA / TTTGCCACTCTTCTCCCTATAGTGAGTCGTATTA [PF20/PF21 primer-template],> 99%,,,,,,
Nc1nc2c(ncn2[C@H]2C[C@H](O)[C@@H](COP(=O)(O)OP(=O)(O)OP(=O)(O)O)O2)c(=O)[nH]1 [dGTP],,,,>99%,62%,84%,
Nc1ncnc2c1ncn2[C@H]1C[C@H](O)[C@@H](COP(=O)(O)OP(=O)(O)OP(=O)(O)O)O1 [dATP],,,,>99%,1%,80%,
"Nc1ccn([C@@H]2O[C@H](COP(=O)(O)OP(=O)(O)OP(=O)(O)O)[C@@H](O)[C@H]2O)c(=O)n1 [rCTP, reference compound]",,dCTP~2′F-rCTP ≧ 2′F-araCTP > CTP,dCTP~2′F-rCTP ≧ 2′F-araCTP > CTP,,,,order of incorporation efficiency [7]: dCTP=2′F-rCTP>2′F-araCTP >>rCTP
